Laboratory results reported in patent US9217014B2, “Antifungal agents and uses thereof” (Cidara Therapeutics, Inc., priority 2011, dated 2015).
Where two headings read alike, the source gives them in different places.

System: C. albicans R303
Assay: mouse candidiasis infection model, IP administration, kidney fungal burden
Assay type: in vivo
Conditions: for log reduction at 0.5 mg/kg / log reduction at 1.5 mg/kg / log reduction at 4.5 mg/kg / log reduction at 5 mg/kg: Candida albicans, R303, ip, 24 h, read-out: Difference from 24-h control; for Mean log10 CFU/kidneys (±SEM) / Mean log10 CFU/kidneys (±SD): kidneys 24 h after infection; for log reduction at 5 mg/kg / Mean log10 CFU/kidneys (±SD): First run, IP 5 mg/kg; for Mean log10 CFU/kidneys (±SD): neutropenic mice; for overall performance in reducing C. albicans CFUs in the kidneys of the mice: conclusion over all runs
Protocol: The objective of these studies was to evaluate the efficacy of test compounds in the mouse candidiasis infection model. Amounts of test articles are uncorrected.
The strain, C. albicans R303 was transferred from frozen storage onto Sabauroud dextrose agar (SDA) plates and grown for ˜24 hr at 35° C. The inoculum was prepared by transferring colonies from the plate to phosphate buffered saline (PBS) and the concentration adjusted to approximately 10^6 CFU/mL with the aid of a spectrophotometer. The stock was diluted 1:9 to prepare the inoculum. Prior to each run the concentration was verified using the dilution plate count method.
Female CD-1 mice were used in this study. The animals were approximately seven-weeks-old at the start of the study and weighed about 15-30 g.
Mice were made neutropenic with IP injections of cyclophosphamide (150 mg/kg in 10 mL/kg) at 4 and 1 day before inoculation. Each animal was inoculated with the appropriate concentration by injecting 0.1 mL of inoculum into a tail vein. The test compounds were administered IP at 2 hr after infection.
In a typical procedure, the kidneys were collected from four mice in control group 1 (untreated) at 2 hr after infection, and from another four mice in control group 2 (untreated) at 24 hr after infection. Kidneys were removed aseptically from each mouse and were combined in a sterile tube. An aliquot (2 mL) of sterile PBS was added to each tube and the contents homogenized with a tissue homogenizer (Polytron 3100). Serial dilutions of the tissue homogenates were conducted and 0.1 mL aliquots were spread on SDA plates and the plates incubated at 35° C. overnight. The CFU/kidneys were determined from colony counts. Data were analyzed using one-way ANOVA with either the Tukey-Kramer Multiple Comparisons Test or Dunnett Test (GraphPad InStat version 3.06, GraphPad Software, San Diego, Calif.).
The data reported below are the average of four mice. Each run included a separate control and each is tabulated separately.

Compound | overall performance in reducing C. albicans CFUs in the kidneys of the mice | log reduction at 0.5 mg/kg (Fourth run, IP 0.5 mg/kg) | log reduction at 1.5 mg/kg (Fourth run, IP 1.5 mg/kg) | Mean log10 CFU/kidneys (±SEM) (Fourth run, IP 0.5 mg/kg) [log10 CFU/kidneys] | Mean log10 CFU/kidneys (±SEM) (Fourth run, IP 1.5 mg/kg) [log10 CFU/kidneys] | also measured
CC[C@H](C)C[C@H](C)CCCCCCCCC(=O)N[C@H]1C[C@@H](O)[C@@H](NCCN)NC(=O)[C@@H]2[C@@H](O)CCN2C(=O)[C@H]([C@H](O)CCN)NC(=O)[C@H]([C@H](O)[C@@H](O)c2ccc(O)cc2)NC(=O)[C@@H]2C[C@@H](O)CN2C(=O)[C@H]([C@@H](C)O)NC1=O [caspofungin, reference compound] | – | – | – | – | – | log reduction at 0.5 mg/kg (Third run, IP 0.5 mg/kg): 4.88; log reduction at 1.5 mg/kg (Third run, IP 1.5 mg/kg): 4.48; log reduction at 4.5 mg/kg (Third run, IP 4.5 mg/kg): 5.2; Mean log10 CFU/kidneys (±SEM) (Third run, IP 0.5 mg/kg): 0.33 ± 0.33 log10 CFU/kidneys; Mean log10 CFU/kidneys (±SEM) (Third run, IP 1.5 mg/kg): 0.73 ± 0.42 log10 CFU/kidneys; Mean log10 CFU/kidneys (±SEM) (Third run, IP 4.5 mg/kg): 0.00 ± 0.00 log10 CFU/kidneys
CCCCCOc1ccc(-c2ccc(-c3ccc(C(=O)N[C@H]4C[C@@H](O)C(OCCN(C)C)NC(=O)C5[C@@H](O)[C@@H](C)CN5C(=O)C([C@@H](C)O)NC(=O)C([C@H](O)[C@@H](O)c5ccc(O)cc5)NC(=O)C5C[C@@H](O)CN5C(=O)C([C@@H](C)O)NC4=O)cc3)cc2)cc1 (stereo partly shown) [compound 2] | performed moderately | – | – | – | – | log reduction at 5 mg/kg: 3.6; Mean log10 CFU/kidneys (±SD): 1.60 ± 0.35 log10 CFU/kidneys
CCCCCOc1ccc(-c2ccc(-c3ccc(C(=O)N[C@H]4C[C@@H](O)C(OCCNC)NC(=O)C5[C@@H](O)[C@@H](C)CN5C(=O)C([C@@H](C)O)NC(=O)C([C@H](O)[C@@H](O)c5ccc(O)cc5)NC(=O)C5C[C@@H](O)CN5C(=O)C([C@@H](C)O)NC4=O)cc3)cc2)cc1 (stereo partly shown) [compound 3] | performed moderately | – | – | – | – | log reduction at 5 mg/kg: 3.63; Mean log10 CFU/kidneys (±SD): 1.57 ± 0.20 log10 CFU/kidneys
CCCCCOc1ccc(-c2ccc(-c3ccc(C(=O)N[C@H]4C[C@@H](O)C(OCCN)NC(=O)C5[C@@H](O)[C@@H](C)CN5C(=O)C([C@@H](C)O)NC(=O)C([C@H](O)[C@@H](O)c5ccc(O)cc5)NC(=O)C5C[C@@H](O)CN5C(=O)C([C@@H](C)O)NC4=O)cc3)cc2)cc1 (stereo partly shown) [compound 4] | performed strongly | – | – | – | – | log reduction at 5 mg/kg: 4.47; log reduction at 0.5 mg/kg (Second run, IP 0.5 mg/kg): 1.5; log reduction at 4.5 mg/kg (Second run, IP 4.5 mg/kg): 4.22; Mean log10 CFU/kidneys (±SD): 0.73 ± 0.85 log10 CFU/kidneys; Mean log10 CFU/kidneys (±SEM) (Second run, IP 0.5 mg/kg): 3.38 ± 0.10 log10 CFU/kidneys; Mean log10 CFU/kidneys (±SEM) (Second run, IP 1.5 mg/kg): 0.65 ± 0.38 log10 CFU/kidneys; Mean log10 CFU/kidneys (±SEM) (Second run, IP 4.5 mg/kg): 0.65 ± 0.38 log10 CFU/kidneys
CCCCCOc1ccc(-c2ccc(-c3ccc(C(=O)N[C@H]4C[C@@H](O)C(OCCOCC[N+](C)(C)C)NC(=O)C5[C@@H](O)[C@@H](C)CN5C(=O)C([C@@H](C)O)NC(=O)C([C@H](O)[C@@H](O)c5ccc(O)cc5)NC(=O)C5C[C@@H](O)CN5C(=O)C([C@@H](C)O)NC4=O)cc3)cc2)cc1 (stereo partly shown) [compound 6] | performed strongly | – | – | – | – | log reduction at 0.5 mg/kg (Second run, IP 0.5 mg/kg): 0.13; log reduction at 1.5 mg/kg (Second run, IP 1.5 mg/kg): 3.27; log reduction at 4.5 mg/kg (Second run, IP 4.5 mg/kg): 4.87; Mean log10 CFU/kidneys (±SEM) (Second run, IP 0.5 mg/kg): 4.75 ± 0.19 log10 CFU/kidneys; Mean log10 CFU/kidneys (±SEM) (Second run, IP 1.5 mg/kg): 1.60 ± 0.17 log10 CFU/kidneys; Mean log10 CFU/kidneys (±SEM) (Second run, IP 4.5 mg/kg): 0.00 ± 0.00 log10 CFU/kidneys
CCCCCOc1ccc(-c2ccc(-c3ccc(C(=O)N[C@H]4C[C@@H](O)C(OCCNCCN)NC(=O)C5[C@@H](O)[C@@H](C)CN5C(=O)C([C@@H](C)O)NC(=O)C([C@H](O)[C@@H](O)c5ccc(O)cc5)NC(=O)C5C[C@@H](O)CN5C(=O)C([C@@H](C)O)NC4=O)cc3)cc2)cc1 (stereo partly shown) [compound 7] | performed strongly | 0.78 | 3.55 | 4.33 ± 0.17 | 1.55 ± 0.19 | –
CCCCCOc1ccc(-c2ccc(-c3ccc(C(=O)N[C@H]4C[C@@H](O)C(NCCOC)NC(=O)C5[C@@H](O)[C@@H](C)CN5C(=O)C([C@@H](C)O)NC(=O)C([C@H](O)[C@@H](O)c5ccc(O)cc5)NC(=O)C5C[C@@H](O)CN5C(=O)C([C@@H](C)O)NC4=O)cc3)cc2)cc1 (stereo partly shown) [compound 8] | performed poorly | 0.32 | 1.66 | 4.78 ± 0.15 | 3.45 ± 0.37 | –
CCCCCOc1ccc(-c2ccc(-c3ccc(C(=O)N[C@H]4C[C@@H](O)C(NCCOCCOC)NC(=O)C5[C@@H](O)[C@@H](C)CN5C(=O)C([C@@H](C)O)NC(=O)C([C@H](O)[C@@H](O)c5ccc(O)cc5)NC(=O)C5C[C@@H](O)CN5C(=O)C([C@@H](C)O)NC4=O)cc3)cc2)cc1 (stereo partly shown) [compound 9] | performed poorly | 0.07 | 1.02 | 5.04 ± 0.13 | 4.09 ± 0.23 | –
CCCCCOc1ccc(-c2ccc(-c3ccc(C(=O)N[C@H]4C[C@@H](O)C(NCCOCCOCCOCCOC)NC(=O)C5[C@@H](O)[C@@H](C)CN5C(=O)C([C@@H](C)O)NC(=O)C([C@H](O)[C@@H](O)c5ccc(O)cc5)NC(=O)C5C[C@@H](O)CN5C(=O)C([C@@H](C)O)NC4=O)cc3)cc2)cc1 (stereo partly shown) [compound 10] | performed poorly | 0.21 | 0.01 | 4.89 ± 0.06 | 5.09 ± 0.11 | –
CCCCCOc1ccc(-c2ccc(-c3ccc(C(=O)N[C@H]4C[C@@H](O)C(NCCOCCO)NC(=O)C5[C@@H](O)[C@@H](C)CN5C(=O)C([C@@H](C)O)NC(=O)C([C@H](O)[C@@H](O)c5ccc(O)cc5)NC(=O)C5C[C@@H](O)CN5C(=O)C([C@@H](C)O)NC4=O)cc3)cc2)cc1 (stereo partly shown) [compound 11] | performed moderately | 0.29 | 2.13 | 4.82 ± 0.20 | 2.98 ± 0.03 | –
CCCCCOc1ccc(-c2ccc(-c3ccc(C(=O)N[C@H]4C[C@@H](O)C(NCCOCCN)NC(=O)C5[C@@H](O)[C@@H](C)CN5C(=O)C([C@@H](C)O)NC(=O)C([C@H](O)[C@@H](O)c5ccc(O)cc5)NC(=O)C5C[C@@H](O)CC5C(=O)C([C@@H](C)O)NC4=O)cc3)cc2)cc1 (stereo partly shown) [compound 12] | performed strongly | 1.9 | 3.5 | 3.20 ± 0.11 | 1.60 ± 0.09 | –
CCCCCOc1ccc(-c2ccc(-c3ccc(C(=O)N[C@H]4C[C@@H](O)C(NCCOCCOCCN)NC(=O)C5[C@@H](O)[C@@H](C)CN5C(=O)C([C@@H](C)O)NC(=O)C([C@H](O)[C@@H](O)c5ccc(O)cc5)NC(=O)C5C[C@@H](O)CC5C(=O)C([C@@H](C)O)NC4=O)cc3)cc2)cc1 (stereo partly shown) [compound 13] | performed moderately | 2.29 | 2.8 | 2.81 ± 0.23 | 2.31 ± 0.19 | –
CCCCCOc1ccc(-c2ccc(-c3ccc(C(=O)N[C@H]4C[C@@H](O)C(NCCOCCOCCOCCN)NC(=O)C5[C@@H](O)[C@@H](C)CN5C(=O)C([C@@H](C)O)NC(=O)C([C@H](O)[C@@H](O)c5ccc(O)cc5)NC(=O)C5C[C@@H](O)CC5C(=O)C([C@@H](C)O)NC4=O)cc3)cc2)cc1 (stereo partly shown) [compound 14] | performed poorly | 0.37 | 0.31 | 4.74 ± 0.17 | 4.80 ± 0.34 | –
